Read-outs that look alike come from different tables or passages of the source.
Key:
Format in all cases: cell-based
[1] = test system: MV4-11, MOLM-13 and HL-60 cells; assay: Cell cycle analysis (PI, flow cytometry); conditions: 4 days of treatment (Figure S2)
Procedure: Cells were washed with PBS and fixed overnight at − 20 °C with 70% ethanol. Fixed cells were stained with PI solution (Sigma-Aldrich St. Louis, MO, USA) solution containing RNase A (Qiagen, Hilden, Germany). Fluorescence was measured with FACS Canto II (BD Biosciences, Heidelberg, Germany) flow cytometer and data was analyzed with FACSDiva software.

[2] = test system: selected MLL-fused models; assay: Cell proliferation, AML/ALL panel; conditions: specifically in selected MLL-fused models (Fig. 2a); read-out: proliferation IC50 (significant effects)
Procedure: (§1) Cells were seeded in the optimal growth medium at 4000–5000 cells/well in a 96 MTP and cultured 18–24 h before inhibitor treatment.

MOLM-14 (MLL-AF9) cells = assay: Cell proliferation (alamarBlue) MOLM-14; conditions: Homo sapiens, MOLM-14, MOLM-14 (MLL-AF9), read-out: IC50 proliferation
Procedure: as §1

OCI-AML-5 (MLL-WT) cells = assay: Cell proliferation (alamarBlue) OCI-AML-5; conditions: Homo sapiens, OCI-AML-5, OCI-AML-5 (MLL-WT), read-out: IC50 proliferation
Procedure: as §1

MV4-11 (MLL-AF4) cells = assay: Cell proliferation (alamarBlue) MV4-11; conditions: Homo sapiens, MV4-11, MV4-11 (MLL-AF4), read-out: IC50 proliferation
Procedure: as §1

Jurkat (MLL-WT) cells = assay: Cell proliferation (alamarBlue) Jurkat; conditions: Homo sapiens, Jurkat (MLL-WT)
Procedure: as §1

MOLM-13 (MLL-AF9) cells = assay: Cell proliferation (alamarBlue) MOLM-13; conditions: Homo sapiens, MOLM-13, MOLM-13 (MLL-AF9), read-out: IC50 proliferation
Procedure: as §1

NOMO-1 (MLL-AF9) cells = assay: Cell proliferation (alamarBlue) NOMO-1; conditions: Homo sapiens, NOMO-1, NOMO-1 (MLL-AF9), read-out: IC50 proliferation
Procedure: as §1

EOL-1 (MLL-TD) cells = assay: Cell proliferation (alamarBlue) EOL-1; conditions: Homo sapiens, EOL1, EOL-1 (MLL-TD), read-out: IC50 proliferation
Procedure: as §1

ML-2 (MLL-AF6) cells = assay: Cell proliferation (alamarBlue) ML-2; conditions: ML-2 (MLL-AF6), read-out: IC50 proliferation
Procedure: as §1

HL-60 cells = assay: CD11b protein expression by flow cytometry, HL-60; conditions: non-fused HL-60 cell line, 4 and 7 days of treatment
Procedure: (§2) Four thousand cells per well were seeded 24 h before they were treated with the indicated inhibitor in a 96 MTP. After 4 or 7 days of treatment, cells were washed with PBS and stained with CD11b - APC (BioLegend, San Diego, California, USA) and DAPI (Thermo Fisher Scientific, Waltham, Massachusetts, USA) or AnnexinV – FITC (BioLegend, San Diego, California, USA) and PI solution (Sigma-Aldrich St. Louis, Missouri, USA) using the FACS Canto II (BD Biosciences, Heidelberg, Germany) and data was analyzed with FACSDiva software.

KOPN-8 (MLL-ENL) cells = assay: Cell proliferation (alamarBlue) KOPN-8; conditions: Homo sapiens, KOPN-8, KOPN-8 (MLL-ENL), read-out: IC50 proliferation
Procedure: as §1

RS4;11 (MLL-AF4) cells = assay: Cell proliferation (alamarBlue) RS4;11; conditions: Homo sapiens, RS4-11, RS4;11 (MLL-AF4), read-out: IC50 proliferation
Procedure: as §1

HL-60 (MLL-WT) cells = assay: Cell proliferation (alamarBlue) HL-60; conditions: for IC50: Homo sapiens, HL-60 (MLL-WT), read-out: IC50 proliferation
Procedure: as §1

[3] = test system: MLL-fused cell lines (MV4-11, MOLM-13); assay: CD11b protein expression by flow cytometry, MLL-fused lines; conditions: 4 and 7 days of treatment
Procedure: as §2

SEM (MLL-AF4) cells = assay: Cell proliferation (alamarBlue) SEM; conditions: SEM (MLL-AF4), read-out: IC50 proliferation
Procedure: as §1

[4] = test system: OCI-AML-2 (MLL-AF9) cells; assay: Cell proliferation (alamarBlue) OCI-AML-2; conditions: Homo sapiens, OCI-AML2, OCI-AML-2 (MLL-AF9), read-out: IC50 proliferation
Procedure: as §1

[5] = test system: MLL-fused cell lines (MV4-11, MOLM-13); assay: Cell proliferation, MLL-fused cell lines; conditions: 4 days of treatment (Fig. 1a), DMSO = 100%
Procedure: Cells were seeded in the optimal growth medium at 4000–5000 cells/well in a 96 MTP and cultured 18–24 h before inhibitor treatment. Upon treatment with the indicated inhibitor, cells were cultured for 24 h, 96 h, and 168 h and effects on proliferation were determined using alamarBlue Cell Viability Reagent (Thermo Fisher Scientific, Waltham, MA, USA).

OCI-AML-3 (MLL-WT) cells = assay: Cell proliferation (alamarBlue) OCI-AML-3; conditions: Homo sapiens, OCI-AML-3, OCI-AML-3 (MLL-WT), read-out: IC50 proliferation
Procedure: as §1

CC(C)N(C[C@H]1O[C@@H](n2cnc3c(N)ncnc32)[C@H](O)[C@@H]1O)[C@H]1C[C@@H](CCc2nc3cc(C(C)(C)C)ccc3[nH]2)C1 [EPZ-5676]
cell cycle effect [1]: decrease of cells in S and G2/M phase with increasing concentrations | IC50 [2]: < 1 µM | IC50 (MOLM-14 (MLL-AF9) cells; D1): > 10 µM | IC50 (MOLM-14 (MLL-AF9) cells; D4): 0.14 µM | IC50 (MOLM-14 (MLL-AF9) cells; D7): 0.12 µM | IC50 (OCI-AML-5 (MLL-WT) cells; D1): > 10 µM | IC50 (OCI-AML-5 (MLL-WT) cells; D4): > 10 µM | IC50 (OCI-AML-5 (MLL-WT) cells; D7): > 10 µM | IC50 (MV4-11 (MLL-AF4) cells; D1): > 10 µM | IC50 (MV4-11 (MLL-AF4) cells; D4): 0.25 µM | IC50 (MV4-11 (MLL-AF4) cells; D7): 0.28 µM | IC50 (Jurkat (MLL-WT) cells; D1, read-out: IC50 proliferation): > 10 µM | IC50 (Jurkat (MLL-WT) cells; D4, read-out: IC50 proliferation): > 10 µM | IC50 (Jurkat (MLL-WT) cells; D7, read-out: IC50 proliferation): > 10 µM | IC50 (MOLM-13 (MLL-AF9) cells; D1): > 10 µM | IC50 (MOLM-13 (MLL-AF9) cells; D4): > 10 µM | IC50 (MOLM-13 (MLL-AF9) cells; D7): 6.57 µM | IC50 (NOMO-1 (MLL-AF9) cells; D1): > 10 µM | IC50 (NOMO-1 (MLL-AF9) cells; D4): > 10 µM | IC50 (NOMO-1 (MLL-AF9) cells; D7): 0.15 µM | IC50 (EOL-1 (MLL-TD) cells; D1): > 10 µM | IC50 (EOL-1 (MLL-TD) cells; D4): > 10 µM | IC50 (EOL-1 (MLL-TD) cells; D7): 0.12 µM | IC50 (ML-2 (MLL-AF6) cells; D1): > 10 µM | IC50 (ML-2 (MLL-AF6) cells; D4): > 10 µM | IC50 (ML-2 (MLL-AF6) cells; D7): > 10 µM | CD11b level (HL-60 cells): did not increase CD11b level | IC50 (KOPN-8 (MLL-ENL) cells; D1): > 10 µM | IC50 (KOPN-8 (MLL-ENL) cells; D4): > 10 µM | IC50 (KOPN-8 (MLL-ENL) cells; D7): > 10 µM | IC50 (RS4;11 (MLL-AF4) cells; D1): > 10 µM | IC50 (RS4;11 (MLL-AF4) cells; D4): > 10 µM | IC50 (RS4;11 (MLL-AF4) cells; D7): > 10 µM | anti-proliferation effect in non-fused HL-60 (HL-60 (MLL-WT) cells; HL-60, 4 days of treatment (Fig. 1a)): no significant effects | IC50 (HL-60 (MLL-WT) cells; 24 h, 1 day of treatment (D1)): > 10 µM | IC50 (HL-60 (MLL-WT) cells; 96 h, 4 days of treatment (D4)): > 10 µM | IC50 (HL-60 (MLL-WT) cells; 168 h, 7 days of treatment (D7)): > 10 µM | CD11b protein level [3]: increased CD11b protein level in a dose and time-dependent manner | IC50 (SEM (MLL-AF4) cells; D1): > 10 µM | IC50 (SEM (MLL-AF4) cells; D4): > 10 µM | IC50 (SEM (MLL-AF4) cells; D7): > 10 µM | IC50 ([4]; D1): > 10 µM | IC50 ([4]; D4): > 10 µM | IC50 ([4]; D7): > 10 µM | proliferation inhibited to [5]: 40–50% | IC50 (OCI-AML-3 (MLL-WT) cells; D1): > 10 µM | IC50 (OCI-AML-3 (MLL-WT) cells; D4): > 10 µM | IC50 (OCI-AML-3 (MLL-WT) cells; D7): > 10 µM
